# From PubChem BioAssay AID1845203 (Molecular Pharmacology Branch, DTP, NCI, 2023)
# Tested on: G-401 tumor spheroids, viability % test/control
# Assay: Anticancer human tumor G-401 cell line growth inhibition;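 further: spheroids exposed to compound for 7 days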;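 on viability, T/C: 100% = DMSO vehicle-treated spheroids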
# Settings: spheroids with HUVEC and MSC; for IC50: curve of first compound; for viability, T/C: stronger effect = lower value
# Source text: Multicellular complex tumor spheroid response to DNA repair inhibitors in combination with DNA-damaging drugs
# This study explores the anticancer activities of DNA-damaging drugs and inhibitors of DNA damage repair, both as single agents and in combinations. Complex tumor spheroids comprised of malignant cells, endothelial cells and mesenchymal stem cells served as an in vitro model for human solid tumors. This model system incorporates physiologically relevant features and patient-derived or established malignant cell lines with clinically relevant genetic alterations from many tumor types. Twenty-six patient-derived or established malignant cell lines were evaluated representing sarcoma, melanoma, small cell lung cancer (SCLC), non-small cell lung cancer (NSCLC), as well as bladder, ovarian and pancreatic cancers. The concentration ranges selected for each drug and investigational agent were based upon clinically achievable concentrations if the clinical Cmax of the agent was known.
# Compounds. The drugs and compounds olaparib (NSC753686), talazoparib (NSC767125), berzosertib (NSC777718), elimusertib (NSC800525), nedisertib (NSC802822), VX-984 (NSC792969), AZD-1390 (NSC803789), temozolomide (NSC362856), topotecan (NSC609699), trabectedin (NSC813783), staurosporine (NSC755774), and gemcitabine (NSC613327) were obtained from the National Cancer Institute (NCI) Developmental Therapeutics Program Chemical Repository. The FDA-approved anticancer drug set is available from the Developmental Therapeutics Program at https://dtp.cancer.gov/organization/dscb/obtaining/available_plates.htm. […] The stock solutions were prepared in dimethyl sulfoxide (DMSO, Sigma-Aldrich, St. Louis, MO, cat. D2650) at 400-fold the tested concentration and stored at -70 degrees C. Prior to their use, the stock solutions were diluted in fresh medium and the final DMSO concentration in the assay was 0.25% (v/v). All drugs and investigational agents were tested over a range starting from a high concentration at or near the clinical Cmax and decreasing in half-log increments. If the clinical Cmax for an agent had not been determined, the highest concentration tested was 10 microM.
# Cell Lines. The patient-derived cancer cell (PDC) lines: 156681-154-R-J1-PDC, 283228-195-R-J1-PDC, 287954-098-R-J1-PDC, 292921-168-R-J2-PDC, 349418-098-R-PDC, 425362-245-T-J1-PDC, 556581-035-R-J1-PDC, and BL0293-F563-PDC were received from the NCI Patient-Derived Models Repository (PDMR, https://pdmr.cancer.gov). The established cell lines HS-SY-2 (RRID:CVCL_8719), MPNST, and SYO-1 (RRID:CVCL_7146) were obtained from the Sloan Kettering Institute. The alveolar soft parts sarcoma cell line ASPS-1 (RRID:CVCL_S738) was established at the NCI and grown from internal seed stocks. The following established cell lines were purchased from the American Type Culture Collection (ATCC, Manassas, VA): G-401 (ATCC, cat. CRL-1441, RRID:CVCL_0270), SW982 (ATCC, cat. HTB-93, RRID:CVCL_1734), VA-ES-BJ (ATCC, cat. CRL-2138, RRID:CVCL_1785), NCI-H719 (ATCC, cat. CRL-5837, RRID:CVCL_1582), NCI-H196 (ATCC, cat. CRL-5823, RRID:CVCL_1509), NCI-H841 (ATCC, cat. CRL-5845, RRID:CVCL_1595), NCI-H1618 (ATCC, cat. CRL-5879, RRID:CVCL_1480), NCI-H1876 (ATCC, cat. CRL-5902, RRID:CVCL_1503), DMS 114 (ATCC, cat. CRL-2066; RRID:CVCL_1174), NCI-H211 (ATCC, cat. CRL-5824; RRID:CVCL_1529), and SW 1271 (ATCC, cat. CRL-2177, RRID:CVCL_1716). The small cell lung cancer cell line COR-L88 was purchased from Sigma-Aldrich (cat. 92031917-1VL, RRID:CVCL_1141). The non-small cell lung cancer cell lines NCI-H226 (RRID:CVCL_1544) and NCI-H322M (RRID:CVCL_1557) were established at the NCI and grown from internal seed stocks. Pooled donor human umbilical vein endothelial cells (HUVEC, Lonza, cat. CC-2519) and human mesenchymal stem cells (hMSC, Lonza, cat. PT-2501) were purchased from Lonza (Walkersville, MD).
# Cell Culture. All cells were maintained in an incubator at 37 degrees C and 5% CO2 with 95% humidity. […]
smiles,measurement,setting,value
Cc1sc2c(c1C)C(c1ccc(Cl)cc1)=NC(CC(=O)Nc1ccc(O)cc1)c1nnc(C)n1-2 (stereo not given) + CC[C@@]1(O)C(=O)OCc2c1cc1n(c2=O)Cc2cc3c(CN(C)C)c(O)ccc3nc2-1,IC50,second compound 0.003 µM,46.5 nM
same,IC50,second compound 0.00949 µM,< 9.49 nM
same,IC50,second compound 0.03 µM,< 9.49 nM
same,IC50,second compound 0.0949 µM,< 9.49 nM
same,IC50,second compound 0.3 µM,< 9.49 nM
same,"viability, T/C","second compound 0.003 µM, first compound 0.00949 µM",72%
same,"viability, T/C","second compound 0.003 µM, first compound 0.03 µM",57.4%
same,"viability, T/C","second compound 0.003 µM, first compound 0.0949 µM",38.5%
same,"viability, T/C","second compound 0.003 µM, first compound 0.3 µM",25.3%
same,"viability, T/C","second compound 0.003 µM, first compound 0.949 µM",15.4%
same,"viability, T/C","second compound 0.003 µM, first compound 3 µM",6.8%
same,"viability, T/C","second compound 0.00949 µM, first compound 0.00949 µM",38.3%
same,"viability, T/C","second compound 0.00949 µM, first compound 0.03 µM",40.3%
same,"viability, T/C","second compound 0.00949 µM, first compound 0.0949 µM",22.1%
same,"viability, T/C","second compound 0.00949 µM, first compound 0.3 µM",17%
same,"viability, T/C","second compound 0.00949 µM, first compound 0.949 µM",6.36%
same,"viability, T/C","second compound 0.00949 µM, first compound 3 µM",3.51%
same,"viability, T/C","second compound 0.03 µM, first compound 0.00949 µM",13.9%
same,"viability, T/C","second compound 0.03 µM, first compound 0.03 µM",11.6%
same,"viability, T/C","second compound 0.03 µM, first compound 0.0949 µM",9.1%
same,"viability, T/C","second compound 0.03 µM, first compound 0.3 µM",6.33%
same,"viability, T/C","second compound 0.03 µM, first compound 0.949 µM",3.18%
same,"viability, T/C","second compound 0.03 µM, first compound 3 µM",1.34%
same,"viability, T/C","second compound 0.0949 µM, first compound 0.00949 µM",7.96%
same,"viability, T/C","second compound 0.0949 µM, first compound 0.03 µM",5.07%
same,"viability, T/C","second compound 0.0949 µM, first compound 0.0949 µM",4.63%
same,"viability, T/C","second compound 0.0949 µM, first compound 0.3 µM",2.93%
same,"viability, T/C","second compound 0.0949 µM, first compound 0.949 µM",1.21%
same,"viability, T/C","second compound 0.0949 µM, first compound 3 µM",0.82%
same,"viability, T/C","second compound 0.3 µM, first compound 0.00949 µM",4.4%
same,"viability, T/C","second compound 0.3 µM, first compound 0.03 µM",3.79%
same,"viability, T/C","second compound 0.3 µM, first compound 0.0949 µM",3.23%
same,"viability, T/C","second compound 0.3 µM, first compound 0.3 µM",1.9%
same,"viability, T/C","second compound 0.3 µM, first compound 0.949 µM",1.03%
same,"viability, T/C","second compound 0.3 µM, first compound 3 µM",0.5%
